{"source": "paper PMC10066365", "about": "“Nemacol is a small molecule inhibitor of C. elegans vesicular acetylcholine transporter with anthelmintic potential” (Nature Communications, 2023)", "biological_target": "T1, rat VAChT (Rattus norvegicus, UniProt Q62666)", "T1 construct": "expressed in transfected cells; host or cells: rat PC12 (PC12 A123.7) cells, stably transfected; shared by Dr. Ali Roghani (Texas Tech University)", "T1 sequence (Q62666 1-530)": "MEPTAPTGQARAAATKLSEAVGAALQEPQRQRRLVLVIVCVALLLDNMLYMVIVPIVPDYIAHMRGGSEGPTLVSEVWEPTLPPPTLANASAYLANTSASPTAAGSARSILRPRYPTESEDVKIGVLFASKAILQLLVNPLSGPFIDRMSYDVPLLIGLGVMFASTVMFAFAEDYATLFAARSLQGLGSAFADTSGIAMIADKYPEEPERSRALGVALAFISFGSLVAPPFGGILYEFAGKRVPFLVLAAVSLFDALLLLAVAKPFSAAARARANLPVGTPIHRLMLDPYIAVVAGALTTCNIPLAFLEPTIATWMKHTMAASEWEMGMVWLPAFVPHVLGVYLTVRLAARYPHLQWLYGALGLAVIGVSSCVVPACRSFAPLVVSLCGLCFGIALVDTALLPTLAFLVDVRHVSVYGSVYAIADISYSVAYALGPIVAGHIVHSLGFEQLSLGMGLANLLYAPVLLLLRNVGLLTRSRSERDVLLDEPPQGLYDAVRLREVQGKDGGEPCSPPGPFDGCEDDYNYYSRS", "assay": "[3H]Vesamicol competitive radioligand binding, PC12 cells expressing ratVAChT", "conditions": "ratVAChT Ki, [3H]Vesamicol displacement, mean"}
{"smiles": "O[C@@H]1CCCC[C@H]1N1CCC(c2ccccc2)CC1", "note": "(racemic) [vesamicol, reference compound]", "values": [{"measurement": "Ki", "result": 21, "unit": "nM"}]}
